From patent publication EP0368576B1, “Insecticide comprising a suspension of microcapsules containing chlorpyrifos” (priority 1988, dated 1990)

What was measured:
carp = experiment: Acute toxicity to fish; format: in vivo
Method: (§1) Tests of the acute oral toxicity and the acute dermal toxicity of the encapsulated insecticide produced in Example 2 and the acute toxicity thereof to fish were carried out as follows.
(§2) A group of 5 ICR male mice (5 weeks old) and a group of 5 Wister male rats (8 weeks old) were used for the acute oral toxicity test and the acute dermal toxicity test, respectively. Tests were carried out to obtain LD₅₀ values in accordance with the toxicity guidance of agricultural chemicals (Agricultural production No. 59 - 4200) (Notification of Director-General, Agricultural Production Bureau, 59 Nohsan No. 4200 dated January 28, 1985) issued by the Agricultural and Fisheries Ministry. The test for acute toxity to fish was carried out using groups of carp, each group consisting of 10 carp, in accordance with the Circular Notice No. 2735 issued by Director of the Agricultural Administration Bureau in the Agricultural and Fisheries Ministry to obtain the TLm of each group.

[1] = Acute dermal toxicity test; conditions: Wistar, rat, in vivo, topical or ocular, Wister male rats (8 weeks old), read-out: Acute dermal toxicity LD₅₀
Method: as §1, §2

[2] = Test of the release property in soil; format: physicochemical; conditions: sand soil, 65 days; rate based on the original amount
Method: 7.5 g of the encapsulated insecticide produced in Example 2 was dispersed in 100 mℓ of water, and 1 mℓ of the dispersion was added to 30 g of soil (sand soil of Mt. Kannan) which had been put into a 100-mℓ beaker, and thoroughly mixed therewith.
Separately from this, 1500 mg of the chlorpyrifos was dissolved into 100 mℓ of acetone and 1 mℓ of the solution was added to 30 g of soil (same as above) and thoroughly mixed therewith.
The beaker was covered with aluminium foil, and water was sometimes sprayed on the soil to prevent the soil from drying. 65 days after, the amount of chlorpyrifos in the beaker was measured.
In order to measure the total amount of chlorpyrifos, 150 mℓ of acetone and 2 mℓ of concentrated hydrochloric acid was added to 30 g of the soil. The mixture was refluxed under heating in a water bath at 65°C for 1 hour, and after cooling filtered through No. 5C filter paper. The residue was further washed with 100 mℓ of acetone, and diluted so that the total volume was 250 mℓ to measure the amount of chlorpyrifos by high-speed liquid chromatography.
The amount of chlorpyrifos liberated was measured in the following manner. A mixture solvent of methanol and water (60/40) was added to 30 g of the soil. After the mixture was shaken for 10 minutes, the mixture was filtered through No. 5C filter paper. […]

Acute oral toxicity test = conditions: mouse, in vivo, ICR male mice (5 weeks old), read-out: Acute oral toxicity LD₅₀
Method: as §1, §2

CCOP(=S)(OCC)Oc1nc(Cl)c(Cl)cc1Cl [Technical, 0,0-diethyl-0-3,5,6-trichloro-2-pyridyl-phosphorothioate]
Toxicity to fish TLm (48 h) (carp): 0.13 ppm
LD50 [1]: 202 mg/kg
Amount of chlorpyrifos remaining in the soil: Total amount of chlorpyrifos [2]: 41 wt%
LD50 (Acute oral toxicity test): 178 mg/kg
